# Assay results from ChEMBL document CHEMBL1151390, “Microbial Transformations of Natural Antitumor Agents. 20. Glucosylation of Viridi-catumtoxin” (J Nat Prod, 1982).
# Calls of active or inactive are those of the source. The calls are words filed in the database; no cut-off is given here.
# Tested on: P388
# Assay: Antitumor activity against mouse P388 cells
# Format: functional, cell-based
compound,measurement,value
COc1cc(O)c2c(O[C@@H]3O[C@H](CO)[C@@H](O)[C@H](O)[C@H]3O)c3c(c4c2c1[C@@]1(C4)C(C)=CCCC1(C)C)[C@H](O)[C@@]1(O)CC(O)=C(C(N)=O)C(=O)[C@@]1(O)C3=O,Activity,inactive
